# Reference: PubChem BioAssay (NCI)
# Where “and” joins values, the source holds several entries; their conditions need not be identical. Equal entries are not always repeated.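 The compound was tested at five concentrations on cells cultured in 96-well plates, with a 48-hour exposure period. GI50: concentration for 50% inhibition of growth. TGI: total growth inhibition.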
# What was measured:
# Assay in all cases: DTP human tumour cell line panel, 48 h
# IGROV1 ovarian = test system: IGROV1 ovarian
# SW-620 colon = test system: SW-620 colon
# SR leukemia = test system: SR leukemia
# SK-MEL-5 melanoma = test system: SK-MEL-5 melanoma
# RXF 393 renal = test system: RXF 393 renal
# K-562 leukemia = test system: K-562 leukemia
# SK-MEL-28 melanoma = test system: SK-MEL-28 melanoma
# SK-OV-3 ovarian = test system: SK-OV-3 ovarian
# SNB-78 CNS = test system: SNB-78 CNS
Structure (SMILES),GI50 (IGROV1 ovarian),TGI (IGROV1 ovarian),GI50 (SW-620 colon),TGI (SW-620 colon),GI50 (SR leukemia),TGI (SR leukemia),GI50 (SK-MEL-5 melanoma),TGI (SK-MEL-5 melanoma),GI50 (RXF 393 renal),TGI (RXF 393 renal),GI50 (K-562 leukemia) [µM],TGI (K-562 leukemia) [µM],GI50 (SK-MEL-28 melanoma),TGI (SK-MEL-28 melanoma),GI50 (SK-OV-3 ovarian),TGI (SK-OV-3 ovarian),TGI (SNB-78 CNS) [µM]
COc1ccc(-c2nc(-c3nc4ccc(C(F)(F)F)cc4[nH]3)c3ccccn23)cc1,> 100 µM,> 100 µM,> 100 µM,> 100 µM,32.3 µM,> 100 µM,47 µM,> 100 µM,30.5 µM,> 100 µM,35.3,> 100,> 100 µM,> 100 µM,> 100 µM,> 100 µM,
CC1(C)CC(=O)c2c(ccc(C(=O)C[C@@H](N)CO)c2N)O1,0.958 µM,> 100 µM,0.234 µM,12.7 µM,0.15 µM,,1.37 µM,> 43.9 µM,1.45 µM,7.44 µM,0.531,> 100,0.595 µM,34.5 µM,7.32 µM,> 100 µM,
Clc1ccc(C2=NOC3C4CCC(C4)C23)cc1 (centres undefined),,> 100 µM,,> 100 µM,,> 100 µM,,> 100 µM,,,,> 100,,> 100 µM,,> 100 µM,> 100
Brc1ccc(C2SCc3nc4ccccc4n32)cc1 (centres undefined),,27.3 µM,,29.2 µM,,28.3 µM,,12.5 µM,,20.9 µM,,> 100,,16.7 µM,,37.7 µM,22.5
C#C/C=C/CC1OC(C(Br)CC)CC(Br)C2CC1O2 (centres undefined),,14.6 µM,,> 100 µM,,> 100 µM,,> 100 µM,,> 100 µM,,> 100,,> 100 µM,,> 100 µM,
Oc1c(CNCCNCc2cc(Cl)cc(Cc3ccccc3)c2O)cc(Cl)cc1Cc1ccccc1,0.475 µM,16.3 µM,0.472 µM,30.7 µM,0.376 µM,> 100 µM,0.302 µM,1.91 µM,0.414 µM,3.97 µM,0.391,27.2,0.478 µM,30.7 µM,0.462 µM,> 100 µM,
CNCCCn1c2c(c3ccc(F)cc3c1=O)C(=O)c1cc(OC)cnc1-2,0.32 µM,4.11 µM,0.184 µM,2.03 µM,0.12 µM,1.13 µM,0.307 µM,1.08 µM,0.316 µM,1.38 µM,0.172,1.92,1.44 µM,3.94 µM,0.228 µM,0.674 µM,
O=C(c1ccccc1O)c1[nH]c(Cl)c(Cl)c1-n1c(C(=O)c2ccccc2O)cc(Cl)c1Cl,1.54 µM and 1.45 µM,20.5 µM and 15.1 µM,0.869 µM and 0.716 µM,13.2 µM and 12.7 µM,2.76 µM and 0.446 µM,15.2 µM and 15.1 µM,0.314 µM and 0.22 µM,1.38 µM and 0.589 µM,1.09 µM and 0.754 µM,9.12 µM and 6.72 µM,0.409,16.8,0.844 µM and 0.529 µM,12.3 µM and 11.3 µM,1.86 µM and 2.31 µM,7.11 µM and 13.1 µM,
